# Literature values, collected in patent US9402907B2, “Pharmaceutical composition containing diamine derivative” (DAIICHI SANKYO COMPANY, LIMITED, priority 2011, dated 2016).
# Like-named read-outs stand apart in the source and are kept apart here.
smiles,measurement,setting,value
"CN1CCc2nc(C(=O)N[C@@H]3C[C@@H](C(=O)N(C)C)CC[C@@H]3NC(=O)C(=O)Nc3ccc(Cl)cn3)sc2C1 [Compound I, N^1-(5-chloropyridin-2-yl)-N^2-((1S,2R,4S)-4-[(dimethylamino)carbonyl]-2-{[(5-methyl-4,5,6,7-tetrahydrothiazolo[5,4-c]pyridin-2-yl)carbonyl]amino}cyclohexyl)ethanediamide]",solubility,"aqueous solution having a pH in the neutral region (e.g., a neutral buffer)",reduced solubility
same,solubility,strongly acidic aqueous solution,favorable solubility
